The test system of one data set is CEM-SS cells. Nature of the data set: cytotoxicity on non-infected cells (MTT test). The class given is cell-based. Particulars: Table 3; non-infected cells, MTT, 5 days. On the procedure:
(§1) In parallel experiments, the cytotoxicity of the molecules was measured on non-infected cells, after an incubation of 5 days in the presence of these molecules, by using a […] titration (MTT test) based on the ability of the mitochondrial dehydrogenases of the living cells to reduce 3-(4,5-dimethylthiazol-2-yl)-2,5-diphenyltetrazolium bromide in formazan (Mosmann et al. J. Immunol. Methods ([…]), 65, 55-63). The concentration cytotoxic at 50% (CC50) is the concentration at which the DO540 has been reduced to half and is calculated by using the program mentioned above.
For orientation: Formazan colour is commonly taken as a measure of viable cells.

Data set [1] is described as follows: cytotoxicity on non-infected cells (MTT test). The class given is cell-based. To be noted: human; Table 2; non-infected CEM-SS cells, MTT, 5 days. On the procedure:
as §1

For data set [2], the system named is HIV-1 resistant to Nevirapine (N119). Put plainly: microbe, parasite or virus in culture. To be noted: for IC50: Human immunodeficiency virus 1, CEM-SS, read-out: IC50, strain resistant to Nevirapine; for SI (selectivity index): Table 3, strain resistant to Nevirapine. The class given is cell-based. On the procedure:
The effects of the compounds were evaluated on the replication of HIV-1 (see Table 2) on CEM-SS cells (cell lines of the lymphocytic lineage) strongly infected with HIV-1 LAI as described by Moog et al. (Antiviral Research (1994), 24, 275-288). The CEM-SS and the HIV-1 resistant to Nevirapine (N119) carrying a point mutation at codon 181 of the IT, were supplied respectively by P. NARA and D. RICHMAN through the intermediary of the AIDS Research and Reference Reagent Program, Division of AIDS, NIAID, NIH (USA) (Catalogue references : No. 776 and No. 1392).
(§2) The virus production was measured by quantifying the activity of the inverse transcriptase associated with viral particles released into the culture supernatant. In short, cells were infected with 100 TCID50 for 30 minutes; after adsorption of the virus, unbound particles were removed by two washings and the cells were cultivated in the presence of different concentrations of the compounds tested for 5 days before determining the viral production. The concentration inhibiting 50% of the viral multiplication (IC50) came from the computer plot of the median effect of the dose effect results (Chou et al. Elsevier Science Publishers, Cambridge U.K. (1985), 19-28).

The next data set concerns HIV-1 LAI. Put plainly: anti-HIV-1 activity: replication of HIV-1 LAI on CEM-SS cells. Type of data set: cell-based. Particulars: Table 2, HIV-1 LAI, CEM-SS cells; for IC50: Human immunodeficiency virus 1, 120 h, 5 days, read-out: IC50, anti-HIV-1 activity. On the procedure: The CEM-SS and the HIV-1 resistant to Nevirapine (N119) carrying a point mutation at codon 181 of the IT, were supplied respectively by P. NARA and D. RICHMAN through the intermediary of the AIDS Research and Reference Reagent Program, Division of AIDS, NIAID, NIH (USA) (Catalogue references : No. 776 and No. 1392).
as §2

The target of a further data set is T1, IT of recombinant HIV-1 (Human immunodeficiency virus type 1 group M subtype B, UniProt P03369).
T1 construct: purify the IT enzyme of the recombinant HIV-1; made in house; host or cells: yeast cells transformed with the pAB 24/IT-4 vector
Put plainly: inhibition of the inverse transcriptase of recombinant HIV-1. Type of data set: biochemical. On the procedure:
Yeast cells transformed with the pAB 24/IT-4 vector were used to purify the IT enzyme of the recombinant HIV-1 as described by Sallafranque-Andreola et al. (1989 Eur. J. Biochem. 184, 364-374).
(§3) Incubation was carried out at 37° C. for 10 minutes in the presence of various matrix-primers.
(§4) a) Poly C-oligo dG: the reaction mixture contained a final volume of 0.05 ml, Tris-HCl 50 mM pH 8.0, MgCl2 5 mM, dithiothreitol 4 mM, 0.48 A260 /ml of poly C-oligo dG (5:1), 1.0 μCi of [^3 H]dGTP (28 Ci/mmole), dGTP 2 μM, KCl 80 mM, 1 μg of bovine serum albumin and IT 20-50 nM.
(§5) b) Poly A-oligo dT: the same conditions as in a), except that 0.48 A260 /ml of poly A-oligo dT (5:1), 0.5 μCi of [^3 H]dTTP (46 Ci/mmole), dTTP 20 μM were used.
(§6) The reactions were stopped by adding in the cold 1 ml of 10% trichloroacetic acid plus sodium pyrophosphate 0.1 M. The precipitates were filtered through nitrocellulose membranes, washed with 2% trichloroacetic acid, dried and counted in a PPO/POPOP/toluene scintillation mixture.
(§7) All the compounds were dissolved in dimethyl#sulphoxide (DMSO). The test samples were prepared in the presence of the same final concentration of DMSO. IC50 is the concentration required to inhibit the activity of the IT of the recombinant HIV-1 by 50%.

Data set [3] has as its target inverse transcriptase of HIV-1 (HIV-1 M:B_ARV2/SF2, UniProt P03369). Put plainly: enzymatic kinetic analysis of IT inhibition (Lineweaver-Burk). Type of data set: biochemical. On the procedure: FIG. 12 is a double-reciprocal (Lineweaver-Burk) representation of the inhibition of the inverse transcriptase of HIV-1 by compound 7c with the poly C-oligo dG as a matrix-primer couple and dGPT as substrate.
FIG. 13 is a double-reciprocal representation, similar to […], in which the poly A-oligo dT is used as a matrix-primer couple and dTTP as substrate.
as §3, §4, §5, §6

The target of a further data set is IT of HIV-2 (Human immunodeficiency virus type 2 (ISOLATE ROD), UniProt P04584). Nature of the data set: inhibition of the inverse transcriptase of HIV-2. Type of data set: biochemical. Particulars: at concentrations at which the IT of HIV-1 was well inhibited (FIG. 9). On the procedure:
The system for the expression of the IT of HIV-2 in E.coli (B. Muller et al. (1991 J. Biol. Chem. 266, 14708-14713) was provided by Dr. R. Goody. The IT of the HIV-2 was purified in the same way as the IT of the HIV-1.
as §3, §4, §5, §6, §7

The CC50 is the concentration giving 50% cytotoxicity. The low end stands for greater toxicity to the cells, the high end for lower toxicity to the cells. As a reminder, the IC50 is the concentration at which inhibition is half-maximal.

The structures appear in SMILES notation.

Chain of IT of HIV-2 (P04584 613-1171): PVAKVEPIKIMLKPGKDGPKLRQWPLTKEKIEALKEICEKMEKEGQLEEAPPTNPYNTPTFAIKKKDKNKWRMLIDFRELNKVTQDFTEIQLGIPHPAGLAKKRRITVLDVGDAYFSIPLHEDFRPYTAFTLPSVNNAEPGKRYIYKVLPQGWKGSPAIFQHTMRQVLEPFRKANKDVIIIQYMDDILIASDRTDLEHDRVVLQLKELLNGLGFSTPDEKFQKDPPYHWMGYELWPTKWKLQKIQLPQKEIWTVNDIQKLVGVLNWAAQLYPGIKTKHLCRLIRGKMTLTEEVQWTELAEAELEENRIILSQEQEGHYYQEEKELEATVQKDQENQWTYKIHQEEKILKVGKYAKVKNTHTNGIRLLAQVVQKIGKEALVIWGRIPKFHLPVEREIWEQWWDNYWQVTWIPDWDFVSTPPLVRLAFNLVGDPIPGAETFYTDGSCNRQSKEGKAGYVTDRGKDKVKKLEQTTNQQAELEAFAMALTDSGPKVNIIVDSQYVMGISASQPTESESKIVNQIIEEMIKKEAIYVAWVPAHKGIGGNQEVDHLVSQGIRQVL

In the case of `Cc1cc(C)cc(Sc2c(C)cnc(O)c2N)c1` [Compound 8a, 3-amino-5-methyl-4-(3', 5'-dimethylphenyl)-thio-pyridin-2(1H)-one], the CC50 in the data set with CEM-SS cells was > 10 µM. In addition, the 50% cytotoxic concentration (CC50) at 120 h in data set [1] was > 10 µM. Besides, the figures for the half-maximal inhibitory concentration (IC50) (in data set [2]; in the data set on HIV-1 LAI; at IT of recombinant HIV-1) were > 10 µM, 0.01 µM and 0.1 µM, respectively. The “SI (selectivity index)” value in the data set on HIV-1 LAI was > 1000.
As to `CCOC(=O)c1c(Sc2cc(C)cc(C)c2)c(CC)c(C)[nH]c1=O` [Compound 15, 5-ethyl-6-methyl-3-carbethoxy-4-(3', 5'-dimethylphenyl)thio-pyridin-2(1H)-one], the CC50 in the data set on CEM-SS cells was > 10 µM. The CC50 at 120 h in data set [1] is > 10 µM. Moreover, the concentration for half-maximal inhibition (IC50) in data set [2] came out at 2.2 µM; in the data set with HIV-1 LAI, 0.003 µM; at IT of recombinant HIV-1, 0.6 µM. Moreover, the “SI (selectivity index)” value is > 4.5 in data set [2] and > 3333 with HIV-1 LAI.
Take `CCc1c(C)nc(O)c(N)c1Sc1cc(C)cc(C)c1` [Compound 8c, 3-amino-5-ethyl-6-methyl-4-(3', 5'-dimethylphenyl)thio-pyridin-2(1H)-one]: the CC50 in the data set on CEM-SS cells is > 10 µM. For the same molecule, the CC50 at 120 h in data set [1] was > 10 µM. For the same molecule, the type of inhibition entry in data set [3] (as regards dGTP substrate, poly C-oligo dG matrix-primer (FIG. 12)) was “non-competitive”; in data set [3] (poly A-oligo dT matrix-primer, dTTP substrate (FIG. 13)), “competitive”. Further, the “effect on activity of the IT of HIV-2” value on IT of HIV-2 is “not affected”. Besides, the figures for the IC50 (in data set [2]; with HIV-1 LAI; at IT of recombinant HIV-1) were 2.1 µM, 0.014 µM and 0.015 µM, respectively. The “SI (selectivity index)” value in data set [2] is listed as > 4; in the data set on HIV-1 LAI, > 714. Also, at IT of recombinant HIV-1 (FIG. 9), the “effect on activity of the IT of HIV-1 in HIV-1/HIV-2 comparison” value is reported as “well inhibited”. Moreover, the “IT inhibition according to matrix-primer couple” value at IT of recombinant HIV-1 (poly C-oligo dG compared with poly A-oligo dT (FIG. 9)) is on record as “gave the same result”.
Consider `CC(=O)Nc1c(Sc2cc(C)cc(C)c2)c(C)c[nH]c1=O` [Compound 11b, 3-acetamido-5-methyl-4-(3', 5'-dimethylphenyl)thio-pyridin-2(1H)-one], for which, in the data set with CEM-SS cells, the CC50 is > 100 µM. In addition, the CC50 at 120 h in data set [1] was > 100 µM. Besides, the IC50 in data set [2] was > 100 µM; with HIV-1 LAI it was 0.067 µM; at IT of recombinant HIV-1 it was > 4 µM. Further, in the data set with HIV-1 LAI, the “SI (selectivity index)” value is > 1492.

Values taken from patent publication US6015820A, “4-Aryl-thio-pyridin-2(1H)-ones, medicines containing them and their uses in the treatment of illnesses linked to HIV” (priority 1995, dated 2000).
